Assay results taken from PubChem BioAssay (NCI).
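Step 1: Grow cells in 96-well plates. Step 2: Expose to compound for 48 hours at 5 concentrations. Step 3: Interpolate endpoints linearly; if unreached, use highest concentration. At the GI50, growth is halved. Definition used: TGI = concentration required for complete inhibition of growth.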

Legend:
Assay in all cases: growth of human tumour cells (NCI), 48 h
[1] = test system: A498 renal
[2] = test system: A549 NSCLC
[3] = test system: ACHN renal
[4] = test system: CAKI-1 renal
[5] = test system: CCRF-CEM leukemia
[6] = test system: COLO 205 colon
[7] = test system: DU-145 prostate
[8] = test system: EKVX NSCLC
[9] = test system: HCC-2998 colon
[10] = test system: HCT-116 colon
[11] = test system: HCT-15 colon
[12] = test system: HL-60(TB) leukemia
[13] = test system: HOP-62 NSCLC
[14] = test system: HOP-92 NSCLC
[15] = test system: HS 578T breast
[16] = test system: HT29 colon
[17] = test system: IGROV1 ovarian
[18] = test system: K-562 leukemia
[19] = test system: KM12 colon
[20] = test system: LOX IMVI melanoma
[21] = test system: M14 melanoma
[22] = test system: MCF7 breast
[23] = test system: MDA-MB-231 breast
[24] = test system: MDA-MB-435
[25] = test system: MOLT-4 leukemia
[26] = test system: NCI-H226 lung
[27] = test system: NCI-H23 lung
[28] = test system: NCI-H460 lung
[29] = test system: NCI-H522 lung
[30] = test system: NCI/ADR-RES ovarian
[31] = test system: OVCAR-3 ovarian
[32] = test system: OVCAR-4 ovarian
[33] = test system: OVCAR-5 ovarian
[34] = test system: OVCAR-8 ovarian
[35] = test system: PC-3 prostate
[36] = test system: RPMI-8226 leukemia
[37] = test system: RXF 393 renal
[38] = test system: SF-268 CNS
[39] = test system: SF-295 CNS
[40] = test system: SF-539 CNS
[41] = test system: SK-MEL-2 melanoma
[42] = test system: SK-MEL-28 melanoma
[43] = test system: SK-MEL-5 melanoma
[44] = test system: SN12C renal
[45] = test system: SNB-19 CNS
[46] = test system: SNB-75 CNS
[47] = test system: SR leukemia
[48] = test system: SW-620 colon
[49] = test system: T-47D breast
[50] = test system: TK-10 renal
[51] = test system: U251 CNS
[52] = test system: UACC-257 melanoma
[53] = test system: UACC-62 melanoma
[54] = test system: UO-31 renal

## O=C(NCCNc1nccc(-c2c(-c3cccc(O)c3)nc3sccn23)n1)c1ccccc1
[1]
  GI50: 3.68 µM
  TGI: 19.3 µM
[2]
  GI50: 9.21 µM
  TGI: 46.5 µM
[3]
  GI50: 6.43 µM
  TGI: 34.9 µM
[4]
  GI50: 5.92 µM
  TGI: 29.6 µM
[5]
  GI50: 3.38 µM
  TGI: 34.1 µM
[6]
  GI50: 3.99 µM
  TGI: 23.8 µM
[7]
  GI50: 19.7 µM
  TGI: 68.7 µM
[8]
  GI50: 25 µM
  TGI: > 100 µM
[9]
  GI50: 13.8 µM
  TGI: 31.2 µM
[10]
  GI50: 4.82 µM
  TGI: 17.5 µM
[11]
  GI50: 18.8 µM
  TGI: 62.2 µM
[12]
  GI50: 10.2 µM
  TGI: 29.6 µM
[13]
  GI50: 23.5 µM
  TGI: 94.2 µM
[14]
  GI50: 2.22 µM
  TGI: 33.2 µM
[15]
  GI50: 4.86 µM
  TGI: 38.3 µM
[16]
  GI50: 6.8 µM
  TGI: 38.3 µM
[17]
  GI50: 3.61 µM
  TGI: 50.9 µM
[18]
  GI50: 9.11 µM
  TGI: > 100 µM
[19]
  GI50: 12.1 µM
  TGI: 28.5 µM
[20]
  GI50: 3.22 µM
  TGI: 17.8 µM
[21]
  GI50: 0.434 µM
  TGI: 12.3 µM
[22]
  GI50: 3.24 µM
  TGI: 14.9 µM
[23]
  GI50: 7.05 µM
  TGI: 31.5 µM
[24]
  GI50: 0.578 µM
  TGI: 12.8 µM
[25]
  GI50: 13.5 µM
  TGI: 74.2 µM
[26]
  GI50: 7.95 µM
  TGI: 45.3 µM
[27]
  GI50: 10 µM
  TGI: 30.7 µM
[28]
  GI50: 10.4 µM
  TGI: 27.5 µM
[29]
  GI50: 5.76 µM
  TGI: 25.5 µM
[30]
  GI50: 34.8 µM
  TGI: > 100 µM
[31]
  GI50: 12.3 µM
  TGI: 64.8 µM
[32]
  GI50: 13.9 µM
  TGI: 84.6 µM
[33]
  GI50: 18.3 µM
  TGI: 61.8 µM
[34]
  GI50: 11.1 µM
  TGI: 78.8 µM
[35]
  GI50: 11.9 µM
  TGI: 65.7 µM
[36]
  GI50: 6.97 µM
  TGI: 25.3 µM
[37]
  GI50: 4.14 µM
  TGI: 22.2 µM
[38]
  GI50: 15.5 µM
  TGI: 87 µM
[39]
  GI50: 12.9 µM
  TGI: 38 µM
[40]
  GI50: 11.3 µM
  TGI: 36.8 µM
[41]
  GI50: 2.94 µM
  TGI: 12.9 µM
[42]
  GI50: 0.336 µM
  TGI: 99.1 µM
[43]
  GI50: 4.15 µM
  TGI: 17.5 µM
[44]
  GI50: 9.04 µM
  TGI: 38.4 µM
[45]
  GI50: 29.4 µM
  TGI: > 100 µM
[46]
  GI50: 3.27 µM
  TGI: 28.1 µM
[47]
  GI50: 5.68 µM
  TGI: 50 µM
[48]
  GI50: 18 µM
  TGI: 79.5 µM
[49]
  GI50: 11 µM
  TGI: 49 µM
[50]
  GI50: 11.7 µM
  TGI: 37.1 µM
[51]
  GI50: 17.9 µM
  TGI: > 100 µM
[52]
  GI50: 0.489 µM
  TGI: 18.5 µM
[53]
  GI50: 0.211 µM
  TGI: 1.37 µM
[54]
  GI50: 12.2 µM
  TGI: 88.7 µM
